Test results from PubChem BioAssay AID192 (DTP/NCI, 2004).
Several values for one entry are separate records, joined by “and”; a condition that tells them apart may be missing. Equal values may be shown once. Toxic doses and inconclusive results are not listed.

System: BDF1 mice, B16 melanoma ip, median survival T/C
Test: NCI In Vivo Anticancer Drug Screen. Data for tumor model B16 Melanoma (intraperitoneal) in B6D2F1 (BDF1) mice
Conditions: endpoint: median survival time, higher = longer survival
How it was run: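 Vehicle-treated animals serve as the reference (C); treated animals (T) are scored for survival or tumor size after tumor transplantation.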

[1] = dose: 1.25 mg/kg/injection, schedule: Q01DX009 (ip), vehicle: saline
[2] = dose: 25.0 mg/kg/injection, schedule: Q01DX009 (ip), vehicle: saline
[3] = dose: 50.0 mg/kg/injection, schedule: Q01DX009 (ip), vehicle: saline
[4] = dose: 100.0 mg/kg/injection, schedule: Q01DX009 (ip), vehicle: saline
[5] = dose: 12.5 mg/kg/injection, schedule: Q01DX009 (ip), vehicle: Klucel (hydroxypropylcellulose) (HPC)
[6] = dose: 25.0 mg/kg/injection, schedule: Q01DX009 (ip), vehicle: Klucel (hydroxypropylcellulose) (HPC)
[7] = dose: 50.0 mg/kg/injection, schedule: Q01DX009 (ip), vehicle: Klucel (hydroxypropylcellulose) (HPC)
[8] = dose: 6.25 mg/kg/injection, schedule: Q01DX009 (ip), vehicle: saline with Tween-80
[9] = dose: 12.5 mg/kg/injection, schedule: Q01DX009 (ip), vehicle: saline with Tween-80
[10] = dose: 25.0 mg/kg/injection, schedule: Q01DX009 (ip), vehicle: saline with Tween-80
[11] = dose: 40.0 mg/kg/injection, schedule: Q01DX009 (ip), vehicle: saline with Tween-80
[12] = dose: 100.0 mg/kg/injection, schedule: Q01DX009 (ip), vehicle: Klucel (hydroxypropylcellulose) (HPC)
[13] = dose: 200.0 mg/kg/injection, schedule: Q01DX009 (ip), vehicle: Klucel (hydroxypropylcellulose) (HPC)
[14] = dose: 100.0 mg/kg/injection, schedule: Q01DX009 (ip), vehicle: saline with Tween-80
[15] = dose: 50.0 mg/kg/injection, schedule: Q01DX009 (ip), vehicle: saline with Tween-80
[16] = dose: 400.0 mg/kg/injection, schedule: Q01DX009 (ip), vehicle: Klucel (hydroxypropylcellulose) (HPC)
[17] = dose: 3.12 mg/kg/injection, schedule: Q01DX009 (ip), vehicle: saline
[18] = dose: 12.5 mg/kg/injection, schedule: Q01DX009 (ip), vehicle: saline

In the case of `CCCNC1=C(N2CC2)C(=O)C(NCCC)=C(N2CC2)C1=O`, the T/C [1] is reported as 108 % of control.

In the case of `CC(C)NNC(=O)C(N)CCC(=O)O` (stereo not given), the T/C [2] is reported as 97 % of control, the T/C [3] is reported as 104 % of control and the T/C [4] is reported as 95 % of control. For the same compound, the T/C (dose: 200.0 mg/kg/injection, schedule: Q01DX009 (ip), vehicle: saline) was 100 % of control.

For `O=c1c(O)c(-c2ccc(O)c(O)c2)oc2cc(O)cc(O)c12`, the T/C (dose: 25.0 mg/kg/injection, schedule: Q02DX009 (ip), vehicle: saline) was 89 % of control, the T/C (dose: 50.0 mg/kg/injection, schedule: Q02DX009 (ip), vehicle: saline) was 88 % of control and the T/C (dose: 100.0 mg/kg/injection, schedule: Q02DX009 (ip), vehicle: saline) was 93 % of control. The T/C (dose: 200.0 mg/kg/injection, schedule: Q02DX009 (ip), vehicle: saline with Tween-80) was 86 % of control and the T/C (dose: 200.0 mg/kg/injection, schedule: Q02DX009 (ip), vehicle: saline) was 87 % of control.

`CCc1ccccc1N1CCN(C(=O)c2cc(OC)c(OC)c(OC)c2)CC1` was tested, and the T/C [5] was 88 % of control, the T/C [6] was 94 % of control and the T/C [7] was 94 % of control.

For `CCOC(=O)c1cnc(NN)nc1Nc1cc(Cl)cc(Cl)c1`, the T/C [8] was 97 % of control, the T/C [9] was 101 % of control and the T/C [10] was 91 % of control.

In the case of `Cc1cc(Cc2ccc(N=C=O)c(C)c2)ccc1N=C=O`, the T/C (dose: 3.13 mg/kg/injection, schedule: Q01DX009 (ip), vehicle: saline with Tween-80) is reported as 89 % of control, the T/C [8] is reported as 92 % of control and the T/C [9] is reported as 92 % of control and 102 % of control.

`CNNCc1ccc(C(=O)NC(C)C)cc1` was tested, and the T/C (dose: 37.5 mg/kg/injection, schedule: Q01DX009 (ip), vehicle: water) was 121 % of control, the T/C [11] was 108 % of control and the T/C (dose: 54.0 mg/kg/injection, schedule: Q01DX009 (ip), vehicle: saline) was 123 % of control. The T/C (dose: 90.0 mg/kg/injection, schedule: Q01DX009 (ip), vehicle: saline) was 120 % of control, the T/C (dose: 250.0 mg/kg/injection, schedule: Q01DX009 (ip), vehicle: saline) was 123 % of control and the T/C (dose: 320.0 mg/kg/injection, schedule: Q01DX009 (ip), vehicle: saline with Tween-80) was 98 % of control.

In the case of `NC(=O)Oc1ccccc1`, the T/C [12] is reported as 100 % of control, the T/C (dose: 100.0 mg/kg/injection, schedule: Q04DX003 (ip), vehicle: saline with Tween-80) is reported as 106 % of control and the T/C [13] is reported as 100 % of control. For the same compound, the T/C (dose: 200.0 mg/kg/injection, schedule: Q04DX003 (ip), vehicle: saline with Tween-80) was 113 % of control and the T/C (dose: 400.0 mg/kg/injection, schedule: Q04DX003 (ip), vehicle: saline with Tween-80) was 110 % of control.

With `O=C(/C=C/C(=O)OCC(Cl)(Cl)Cl)OCC(Cl)(Cl)Cl` the T/C [14] was 96 % of control and the T/C (dose: 200.0 mg/kg/injection, schedule: Q01DX009 (ip), vehicle: saline with Tween-80) was 92 % of control.

`COc1cccc2c1C(=O)c1c(O)c3c(c(O)c1C2=O)C[C@@](O)(C(=O)COC(=O)Cc1cccc2ccccc12)C[C@@H]3OC1CC(N)C(O)C(C)O1` (stereo not given in full) was tested, and the T/C (dose: 0.5 mg/kg/injection, schedule: Q01DX009 (ip), vehicle: saline with Tween-80) was 169 % of control, the T/C (dose: 1.0 mg/kg/injection, schedule: Q01DX009 (ip), vehicle: saline with Tween-80) was 150 % of control and 227 % of control and the T/C (dose: 2.0 mg/kg/injection, schedule: Q01DX009 (ip), vehicle: saline with Tween-80) was 169 % of control and 238 % of control. For the same compound, the T/C (dose: 4.0 mg/kg/injection, schedule: Q01DX009 (ip), vehicle: saline with Tween-80) was 192 % of control and 284 % of control.

With `Cc1ccc(C(=O)NC2C(=O)NC(C(C)C)C(=O)N3CCCC3C(=O)N(C)CC(=O)N(C)C(C(C)C)C(=O)OC2C)c2c1Oc1c(c(C(=O)NC3C(=O)NC(C(C)C)C(=O)N4CCCC4C(=O)N(C)CC(=O)N(C)C(C(C)C)C(=O)OC3C)c3nc(CF)c(=O)oc3c1C)N2` (stereo not given) the T/C (dose: 0.13 mg/kg/injection, schedule: Q04DX003 (ip), vehicle: saline + alcohol) was 154 % of control, the T/C (dose: 0.25 mg/kg/injection, schedule: Q04DX003 (ip), vehicle: saline + alcohol) was 164 % of control and the T/C (dose: 31.25 micrograms/kg/injection, schedule: Q04DX003 (ip), vehicle: water) was 112 % of control. The T/C (dose: 125.0 micrograms/kg/injection, schedule: Q04DX003 (ip), vehicle: water) was 180 % of control, the T/C (dose: 250.0 micrograms/kg/injection, schedule: Q04DX003 (ip), vehicle: water) was 170 % of control and the T/C (dose: 500.0 micrograms/kg/injection, schedule: Q04DX003 (ip), vehicle: water) was 175 % of control.

With `Cc1ccc(S(=O)(=O)N2CCCC(Br)(Br)C(=O)c3ccccc32)cc1` the T/C (dose: 25.0 mg/kg/injection, schedule: Q04DX003 (ip), vehicle: Klucel (hydroxypropylcellulose) (HPC)) was 95 % of control, the T/C (dose: 50.0 mg/kg/injection, schedule: Q04DX003 (ip), vehicle: Klucel (hydroxypropylcellulose) (HPC)) was 96 % of control and the T/C (dose: 100.0 mg/kg/injection, schedule: Q04DX003 (ip), vehicle: Klucel (hydroxypropylcellulose) (HPC)) was 93 % of control.

For `Cc1ccc(Cl)cc1NC(=O)COc1ccc(Cl)cc1`, the T/C [10] was 92 % of control, the T/C [15] was 91 % of control and the T/C [14] was 88 % of control.

For `COc1cc(C[C@H]2c3cc(OC)c(OC)cc3CCN2C)c(Oc2cc3c(cc2OC)-c2c(OC)c(OC)cc4c2[C@H](C3)N(C)CC4)cc1OC`, the T/C (dose: 3.0 mg/kg/injection, schedule: Q01DX009 (ip), vehicle: saline with Tween-80) was 93 % of control, the T/C [8] was 92 % of control and 95 % of control and the T/C [9] was 88 % of control and 97 % of control and 107 % of control. The T/C (dose: 75.0 mg/kg/injection, schedule: Q01DX009 (ip), vehicle: saline with Tween-80) was 87 % of control.

For `CCOC(=O)C(C(=O)OCC)N(CC)CC`, the T/C [12] was 93 % of control, the T/C [13] was 90 % of control and the T/C [16] was 100 % of control.

With `CC(=N\O)/C(C)=N/O.CC(=N\O)/C(C)=N/O.[Fe].c1c[nH]cn1.c1c[nH]cn1` the T/C [12] was 100 % of control and the T/C [13] was 100 % of control.

With `OCCOCCN1CCN(C(c2ccccc2)c2ccc(Cl)cc2)CC1` (stereo not given) the T/C [17] was 97 % of control, the T/C (dose: 6.25 mg/kg/injection, schedule: Q01DX009 (ip), vehicle: saline) was 102 % of control and the T/C [18] was 105 % of control. For the same compound, the T/C [2] was 97 % of control, the T/C [3] was 100 % of control and the T/C [4] was 102 % of control.

With `COc1ccc(NCc2ccc(C)cc2)cc1` the T/C [12] was 91 % of control, the T/C [13] was 94 % of control and the T/C [16] was 91 % of control.

In the case of `CN1CCN=C1c1ccc(NC(=O)c2ccc(C(=O)Nc3ccc(C4=NCCN4C)cc3)c(N)c2)cc1`, the T/C [1] is reported as 115 % of control, the T/C (dose: 1.25 mg/kg/injection, schedule: Q04DX003 (ip), vehicle: saline) is reported as 89 % of control and the T/C (dose: 2.5 mg/kg/injection, schedule: Q01DX009 (ip), vehicle: saline) is reported as 117 % of control. For the same compound, the T/C (dose: 2.5 mg/kg/injection, schedule: Q04DX003 (ip), vehicle: saline) was 94 % of control, the T/C (dose: 5.0 mg/kg/injection, schedule: Q01DX009 (ip), vehicle: saline) was 115 % of control and the T/C (dose: 5.0 mg/kg/injection, schedule: Q04DX003 (ip), vehicle: saline) was 100 % of control.

In the case of `[Cl][Pt+2][Cl].[NH-]c1ccc(Cl)cc1[NH-]`, the T/C (dose: 2.5 mg/kg/injection, schedule: Q01DX009 (ip), vehicle: saline with Tween-80) is reported as 108 % of control, the T/C (dose: 20.0 mg/kg/injection, schedule: Q01DX009 (ip), vehicle: saline with Tween-80) is reported as 153 % of control and the T/C [11] is reported as 123 % of control.

In the case of `O=C(OCCOCCN1CCCCC1)N1c2ccccc2Sc2cccnc21`, the T/C [17] is reported as 100 % of control, the T/C [18] is reported as 100 % of control and the T/C [2] is reported as 102 % of control.

In the case of `C=Cc1c(C)c2cc3[nH]c(cc4nc(cc5nc(cc1[nH]2)C(C)=C5CCC(=O)O)C(CCC(=O)O)=C4C)c(C)c3C=C`, the T/C (dose: 6.25 mg/kg/injection, schedule: Q01DX009 (ip), vehicle: Klucel (hydroxypropylcellulose) (HPC)) is reported as 97 % of control, the T/C [5] is reported as 104 % of control and the T/C [6] is reported as 104 % of control. For the same compound, the T/C [7] was 101 % of control.

With `CNC(=O)Nc1cccc(C(F)(F)F)c1` the T/C [6] was 99 % of control, the T/C [7] was 100 % of control and the T/C [12] was 90 % of control and 112 % of control.

For `CC(=O)N(C)N=Nc1ccc(C)cc1`, the T/C (dose: 8.75 mg/kg/injection, schedule: Q01DX009 (ip), vehicle: Klucel (hydroxypropylcellulose) (HPC)) was 103 % of control and the T/C (dose: 17.5 mg/kg/injection, schedule: Q01DX009 (ip), vehicle: Klucel (hydroxypropylcellulose) (HPC)) was 103 % of control.

For `CCOC(=O)C(CC)(CCC(C)C)C(=O)OCC`, the T/C [10] was 102 % of control, the T/C [15] was 99 % of control and the T/C [14] was 97 % of control.
